This assay has as its system HDAC. Nature of the assay: Alternative HDAC activity assay (Cayman Chemicals fluorescent-based HDAC activity assay). The conditions noted are these: acetylated lysine substrate, HDAC developer, fluorescence readout; compared with MS-275. It counts as biochemical. How it is done:
Cayman Chemicals markets a commercial fluorescent-based HDAC activity assay. The assay utilizes a fluorescent-based method for measuring HDAC activity that eliminates radioactivity, extraction or chromatography. The assay requires two steps: first, an acetylated lysine substrate is incubated with samples containing HDAC activity. Deacetylation sensitizes the substrate such that treatment with the HDAC developer in the second step releases a fluorescent product. The fluorophore can be analyzed using a fluorescence plate reader or a fluorometer with […].

On to `C[C@@H](OC(=O)NCc1ccc(C(=O)Nc2ccccc2N)cc1)c1cccnc1` [(R)-1-(pyridin-3-yl)ethyl 4-(2-aminophenylcarbamoyl)benzylcarbamate], for which the “HDAC activity (fluorescent-based HDAC activity assay, FIG. 1)” value was “activity similar to MS-275”.
The value for `C[C@H](OC(=O)NCc1ccc(C(=O)Nc2ccccc2N)cc1)c1cccnc1` [(S)-1-(pyridin-3-yl)ethyl 4-(2-aminophenylcarbamoyl)benzylcarbamate] was “activity similar to MS-275”.

(Values after patent US20100267779A1, “Novel Compounds and Methods of Using Them” (SYNDAX PHARMACEUTICALS, INC., priority 2007, published 2010).)
